± gives the expanded uncertainty stated by the source.
Assay: xn = mol fraction of the nth substance listed
Settings: Liquid, Vibrating tube method

CCCCCCCCCC [decane] + CCCCCCC
mass density (353.08 K, 19000 kPa, x2 = 0.777): 668.89 ± 0.55 kg/m3 | mass density (353.08 K, 20000 kPa, x2 = 0.5219): 683.14 ± 0.54 kg/m3 | mass density (353.08 K, 20000 kPa, x2 = 0.777): 669.88 ± 0.56 kg/m3 | mass density (353.08 K, 21000 kPa, x2 = 0.5219): 684.06 ± 0.55 kg/m3 | mass density (353.08 K, 21000 kPa, x2 = 0.777): 670.85 ± 0.57 kg/m3 | mass density (353.08 K, 22000 kPa, x2 = 0.5219): 684.96 ± 0.56 kg/m3 | mass density (353.08 K, 22000 kPa, x2 = 0.777): 671.79 ± 0.58 kg/m3 | mass density (353.08 K, 23000 kPa, x2 = 0.5219): 685.84 ± 0.57 kg/m3 | mass density (353.08 K, 23000 kPa, x2 = 0.777): 672.72 ± 0.58 kg/m3 | mass density (353.08 K, 24000 kPa, x2 = 0.5219): 686.7 ± 0.57 kg/m3 | mass density (353.08 K, 24000 kPa, x2 = 0.777): 673.63 ± 0.59 kg/m3 | mass density (353.08 K, 25000 kPa, x2 = 0.5219): 687.54 ± 0.58 kg/m3 | mass density (353.08 K, 25000 kPa, x2 = 0.777): 674.52 ± 0.6 kg/m3 | mass density (353.09 K, 1000 kPa, x2 = 0.2594): 674.78 ± 0.42 kg/m3 | mass density (353.09 K, 2000 kPa, x2 = 0.2594): 675.91 ± 0.42 kg/m3 | mass density (353.09 K, 3000 kPa, x2 = 0.2594): 677.03 ± 0.43 kg/m3 | mass density (353.09 K, 4000 kPa, x2 = 0.2594): 678.12 ± 0.43 kg/m3 | mass density (353.09 K, 5000 kPa, x2 = 0.2594): 679.23 ± 0.44 kg/m3 | mass density (353.09 K, 6000 kPa, x2 = 0.2594): 680.3 ± 0.44 kg/m3 | mass density (353.09 K, 7000 kPa, x2 = 0.2594): 681.37 ± 0.45 kg/m3 | mass density (353.09 K, 8000 kPa, x2 = 0.2594): 682.43 ± 0.45 kg/m3 | mass density (353.09 K, 9000 kPa, x2 = 0.2594): 683.51 ± 0.46 kg/m3 | mass density (353.09 K, 10000 kPa, x2 = 0.2594): 684.56 ± 0.47 kg/m3 | mass density (353.09 K, 11000 kPa, x2 = 0.2594): 685.6 ± 0.47 kg/m3 | mass density (353.09 K, 12000 kPa, x2 = 0.2594): 686.61 ± 0.48 kg/m3 | mass density (353.09 K, 13000 kPa, x2 = 0.2594): 687.61 ± 0.48 kg/m3 | mass density (353.09 K, 14000 kPa, x2 = 0.2594): 688.6 ± 0.49 kg/m3 | mass density (353.09 K, 15000 kPa, x2 = 0.2594): 689.58 ± 0.5 kg/m3 | mass density (353.09 K, 16000 kPa, x2 = 0.2594): 690.55 ± 0.5 kg/m3 | mass density (353.09 K, 17000 kPa, x2 = 0.2594): 691.5 ± 0.51 kg/m3 | mass density (353.09 K, 18000 kPa, x2 = 0.2594): 692.42 ± 0.52 kg/m3 | mass density (353.09 K, 19000 kPa, x2 = 0.2594): 693.33 ± 0.52 kg/m3 | mass density (353.09 K, 20000 kPa, x2 = 0.2594): 694.24 ± 0.53 kg/m3 | mass density (353.09 K, 21000 kPa, x2 = 0.2594): 695.13 ± 0.54 kg/m3 | mass density (353.09 K, 22000 kPa, x2 = 0.2594): 695.95 ± 0.54 kg/m3 | mass density (353.09 K, 23000 kPa, x2 = 0.2594): 696.8 ± 0.55 kg/m3 | mass density (353.09 K, 24000 kPa, x2 = 0.2594): 697.62 ± 0.56 kg/m3 | mass density (353.09 K, 25000 kPa, x2 = 0.2594): 698.42 ± 0.56 kg/m3 | mass density (353.12 K, 1000 kPa, x2 = 0.952): 636.17 ± 0.44 kg/m3 | mass density (353.12 K, 2000 kPa, x2 = 0.952): 637.58 ± 0.44 kg/m3 | mass density (353.12 K, 3000 kPa, x2 = 0.952): 638.96 ± 0.45 kg/m3 | mass density (353.12 K, 4000 kPa, x2 = 0.952): 640.34 ± 0.45 kg/m3 | mass density (353.12 K, 5000 kPa, x2 = 0.952): 641.71 ± 0.46 kg/m3 | mass density (353.12 K, 6000 kPa, x2 = 0.952): 643.05 ± 0.47 kg/m3 | mass density (353.12 K, 7000 kPa, x2 = 0.952): 644.36 ± 0.47 kg/m3 | mass density (353.12 K, 8000 kPa, x2 = 0.952): 645.65 ± 0.48 kg/m3 | mass density (353.12 K, 9000 kPa, x2 = 0.952): 646.91 ± 0.49 kg/m3 | mass density (353.12 K, 10000 kPa, x2 = 0.952): 648.14 ± 0.49 kg/m3 | mass density (353.12 K, 11000 kPa, x2 = 0.952): 649.36 ± 0.5 kg/m3 | mass density (353.12 K, 12000 kPa, x2 = 0.952): 650.55 ± 0.51 kg/m3 | mass density (353.12 K, 13000 kPa, x2 = 0.952): 651.72 ± 0.52 kg/m3 | mass density (353.12 K, 14000 kPa, x2 = 0.952): 652.87 ± 0.53 kg/m3 | mass density (353.12 K, 15000 kPa, x2 = 0.952): 654 ± 0.53 kg/m3 | mass density (353.12 K, 16000 kPa, x2 = 0.952): 655.12 ± 0.54 kg/m3 | mass density (353.12 K, 17000 kPa, x2 = 0.952): 656.22 ± 0.55 kg/m3 | mass density (353.12 K, 18000 kPa, x2 = 0.952): 657.29 ± 0.56 kg/m3 | mass density (353.12 K, 19000 kPa, x2 = 0.952): 658.35 ± 0.56 kg/m3 | mass density (353.12 K, 20000 kPa, x2 = 0.952): 659.4 ± 0.57 kg/m3 | mass density (353.12 K, 21000 kPa, x2 = 0.952): 660.42 ± 0.58 kg/m3 | mass density (353.12 K, 22000 kPa, x2 = 0.952): 661.43 ± 0.59 kg/m3 | mass density (353.12 K, 23000 kPa, x2 = 0.952): 662.41 ± 0.6 kg/m3 | mass density (353.12 K, 24000 kPa, x2 = 0.952): 663.35 ± 0.61 kg/m3 | mass density (353.12 K, 25000 kPa, x2 = 0.952): 664.3 ± 0.61 kg/m3 | mass density (363.02 K, 1000 kPa, x2 = 0.5219): 654.13 ± 0.43 kg/m3 | mass density (363.02 K, 1000 kPa, x2 = 0.777): 639 ± 0.43 kg/m3 | mass density (363.02 K, 2000 kPa, x2 = 0.5219): 655.44 ± 0.43 kg/m3 | mass density (363.02 K, 2000 kPa, x2 = 0.777): 640.47 ± 0.44 kg/m3 | mass density (363.02 K, 3000 kPa, x2 = 0.5219): 656.74 ± 0.44 kg/m3 | mass density (363.02 K, 3000 kPa, x2 = 0.777): 641.89 ± 0.44 kg/m3 | mass density (363.02 K, 4000 kPa, x2 = 0.5219): 657.94 ± 0.44 kg/m3 | mass density (363.02 K, 4000 kPa, x2 = 0.777): 643.28 ± 0.45 kg/m3 | mass density (363.02 K, 5000 kPa, x2 = 0.5219): 659.19 ± 0.45 kg/m3 | mass density (363.02 K, 5000 kPa, x2 = 0.777): 644.65 ± 0.46 kg/m3 | mass density (363.02 K, 6000 kPa, x2 = 0.5219): 660.44 ± 0.45 kg/m3 | mass density (363.02 K, 6000 kPa, x2 = 0.777): 646 ± 0.46 kg/m3 | mass density (363.02 K, 7000 kPa, x2 = 0.5219): 661.67 ± 0.46 kg/m3 | mass density (363.02 K, 7000 kPa, x2 = 0.777): 647.32 ± 0.47 kg/m3 | mass density (363.02 K, 8000 kPa, x2 = 0.5219): 662.86 ± 0.47 kg/m3 | mass density (363.02 K, 8000 kPa, x2 = 0.777): 648.61 ± 0.48 kg/m3 | mass density (363.02 K, 9000 kPa, x2 = 0.5219): 664.05 ± 0.47 kg/m3 | mass density (363.02 K, 9000 kPa, x2 = 0.777): 649.89 ± 0.48 kg/m3 | mass density (363.02 K, 10000 kPa, x2 = 0.5219): 665.24 ± 0.48 kg/m3 | mass density (363.02 K, 10000 kPa, x2 = 0.777): 651.15 ± 0.49 kg/m3 | mass density (363.02 K, 11000 kPa, x2 = 0.5219): 666.41 ± 0.49 kg/m3 | mass density (363.02 K, 11000 kPa, x2 = 0.777): 652.39 ± 0.5 kg/m3 | mass density (363.02 K, 12000 kPa, x2 = 0.5219): 667.56 ± 0.49 kg/m3 | mass density (363.02 K, 12000 kPa, x2 = 0.777): 653.61 ± 0.5 kg/m3 | mass density (363.02 K, 13000 kPa, x2 = 0.5219): 668.7 ± 0.5 kg/m3 | mass density (363.02 K, 13000 kPa, x2 = 0.777): 654.81 ± 0.51 kg/m3 | mass density (363.02 K, 14000 kPa, x2 = 0.5219): 669.81 ± 0.51 kg/m3 | mass density (363.02 K, 14000 kPa, x2 = 0.777): 655.99 ± 0.52 kg/m3 | mass density (363.02 K, 15000 kPa, x2 = 0.5219): 670.91 ± 0.51 kg/m3 | mass density (363.02 K, 15000 kPa, x2 = 0.777): 657.15 ± 0.53 kg/m3 | mass density (363.02 K, 16000 kPa, x2 = 0.5219): 671.98 ± 0.52 kg/m3
